Results: ChEMBL document CHEMBL6071156 (Eur J Med Chem, 2024)
Activity calls are given as the source filed them. The calls are words filed in the database; no cut-off is given here.

Legend:
[1] = Cytotoxicity against green monkey Vero 76 cells assessed as reduction in cell viability; assay type: toxicity, cell-based; settings: chlorocebus sabaeus
Chikungunya virus [2] = assay: Antiviral activity against CHIKV S27 in green monkey Vero 76 cells assessed as reduction in virus-induced cytopathic effect; assay type: functional, organism-based; settings: S27, Vero 76
[3] = Selective index, ratio of ratio of CC50 for cytotoxicity against green monkey Vero 76 cells to EC50 for antiviral activity against CHIKV S27 in green monkey Vero 76 cells assessed as reduction; assay type: toxicity, cell-based; settings: read-out: Selectivity Index
Chikungunya virus [4] = assay: Antiviral activity against CHIKV infected in C57BL/6 mouse model assessed as virus titers at 100 mg/kg/day, ip measured after 6 days post infection presence of compound (reference value: 5.3+/0.3); assay type: functional; settings: time 6 day
Chikungunya virus [5] = assay: Antiviral activity against CHIKV infected in C57BL/6 mouse assessed as mouse survival at 300 mg/kg/day, ip measured after 6 days post infection after 4 hrs of last treatment; assay type: functional, organism-based; settings: time 6.0 day
Chikungunya virus [6] = assay: Antiviral activity against CHIKV infected in C57BL/6 mouse assessed as footpad swelling at 300 mg/kg/day, ip measured after 6 days post infection presence of compound (reference value: 40.9+/-12.4); assay type: functional; settings: time 6 day
[7] = Metabolic stability in human liver microsomes assessed as intrinsic clearance by HPLC-MS/MS analysis; assay type: ADME, Microsome
[8] = Metabolic stability in human liver S9 fraction assessed as half life by HPLC-MS/MS analysis; assay type: ADME, subcellular
[9] = Metabolic stability in CD-1 mouse liver microsomes assessed as half life by HPLC-MS/MS analysis; assay type: ADME, Microsome
Chikungunya virus [10] = assay: Antiviral activity against CHIKV S27 in green monkey Vero 76 cells assessed as reduction in virus yield measured after 3 days by Virus yield reduction assay; assay type: functional; settings: S27, Vero 76, 72 h, time 3 day
[11] = biological target: Polyprotein P1234 (Chikungunya virus (strain S27-African prototype) (CHIKV)) (UniProt Q8JUX6); settings: dose 0.27-600 µM
[12] = biological target: Polyprotein P1234 (Chikungunya virus (strain S27-African prototype) (CHIKV)) (UniProt Q8JUX6); settings: dose 0.27-600 µM, time 2000-8000 sec
[13] = Metabolic stability in human liver S9 fraction assessed as intrinsic clearance by HPLC-MS/MS analysis; assay type: ADME, subcellular
[14] = biological target: Polyprotein P1234 (Chikungunya virus (strain S27-African prototype) (CHIKV)) (UniProt Q8JUX6)

Chain of Polyprotein P1234 (Chikungunya virus (strain S27-African prototype) (CHIKV)) (Q8JUX6 whole entry): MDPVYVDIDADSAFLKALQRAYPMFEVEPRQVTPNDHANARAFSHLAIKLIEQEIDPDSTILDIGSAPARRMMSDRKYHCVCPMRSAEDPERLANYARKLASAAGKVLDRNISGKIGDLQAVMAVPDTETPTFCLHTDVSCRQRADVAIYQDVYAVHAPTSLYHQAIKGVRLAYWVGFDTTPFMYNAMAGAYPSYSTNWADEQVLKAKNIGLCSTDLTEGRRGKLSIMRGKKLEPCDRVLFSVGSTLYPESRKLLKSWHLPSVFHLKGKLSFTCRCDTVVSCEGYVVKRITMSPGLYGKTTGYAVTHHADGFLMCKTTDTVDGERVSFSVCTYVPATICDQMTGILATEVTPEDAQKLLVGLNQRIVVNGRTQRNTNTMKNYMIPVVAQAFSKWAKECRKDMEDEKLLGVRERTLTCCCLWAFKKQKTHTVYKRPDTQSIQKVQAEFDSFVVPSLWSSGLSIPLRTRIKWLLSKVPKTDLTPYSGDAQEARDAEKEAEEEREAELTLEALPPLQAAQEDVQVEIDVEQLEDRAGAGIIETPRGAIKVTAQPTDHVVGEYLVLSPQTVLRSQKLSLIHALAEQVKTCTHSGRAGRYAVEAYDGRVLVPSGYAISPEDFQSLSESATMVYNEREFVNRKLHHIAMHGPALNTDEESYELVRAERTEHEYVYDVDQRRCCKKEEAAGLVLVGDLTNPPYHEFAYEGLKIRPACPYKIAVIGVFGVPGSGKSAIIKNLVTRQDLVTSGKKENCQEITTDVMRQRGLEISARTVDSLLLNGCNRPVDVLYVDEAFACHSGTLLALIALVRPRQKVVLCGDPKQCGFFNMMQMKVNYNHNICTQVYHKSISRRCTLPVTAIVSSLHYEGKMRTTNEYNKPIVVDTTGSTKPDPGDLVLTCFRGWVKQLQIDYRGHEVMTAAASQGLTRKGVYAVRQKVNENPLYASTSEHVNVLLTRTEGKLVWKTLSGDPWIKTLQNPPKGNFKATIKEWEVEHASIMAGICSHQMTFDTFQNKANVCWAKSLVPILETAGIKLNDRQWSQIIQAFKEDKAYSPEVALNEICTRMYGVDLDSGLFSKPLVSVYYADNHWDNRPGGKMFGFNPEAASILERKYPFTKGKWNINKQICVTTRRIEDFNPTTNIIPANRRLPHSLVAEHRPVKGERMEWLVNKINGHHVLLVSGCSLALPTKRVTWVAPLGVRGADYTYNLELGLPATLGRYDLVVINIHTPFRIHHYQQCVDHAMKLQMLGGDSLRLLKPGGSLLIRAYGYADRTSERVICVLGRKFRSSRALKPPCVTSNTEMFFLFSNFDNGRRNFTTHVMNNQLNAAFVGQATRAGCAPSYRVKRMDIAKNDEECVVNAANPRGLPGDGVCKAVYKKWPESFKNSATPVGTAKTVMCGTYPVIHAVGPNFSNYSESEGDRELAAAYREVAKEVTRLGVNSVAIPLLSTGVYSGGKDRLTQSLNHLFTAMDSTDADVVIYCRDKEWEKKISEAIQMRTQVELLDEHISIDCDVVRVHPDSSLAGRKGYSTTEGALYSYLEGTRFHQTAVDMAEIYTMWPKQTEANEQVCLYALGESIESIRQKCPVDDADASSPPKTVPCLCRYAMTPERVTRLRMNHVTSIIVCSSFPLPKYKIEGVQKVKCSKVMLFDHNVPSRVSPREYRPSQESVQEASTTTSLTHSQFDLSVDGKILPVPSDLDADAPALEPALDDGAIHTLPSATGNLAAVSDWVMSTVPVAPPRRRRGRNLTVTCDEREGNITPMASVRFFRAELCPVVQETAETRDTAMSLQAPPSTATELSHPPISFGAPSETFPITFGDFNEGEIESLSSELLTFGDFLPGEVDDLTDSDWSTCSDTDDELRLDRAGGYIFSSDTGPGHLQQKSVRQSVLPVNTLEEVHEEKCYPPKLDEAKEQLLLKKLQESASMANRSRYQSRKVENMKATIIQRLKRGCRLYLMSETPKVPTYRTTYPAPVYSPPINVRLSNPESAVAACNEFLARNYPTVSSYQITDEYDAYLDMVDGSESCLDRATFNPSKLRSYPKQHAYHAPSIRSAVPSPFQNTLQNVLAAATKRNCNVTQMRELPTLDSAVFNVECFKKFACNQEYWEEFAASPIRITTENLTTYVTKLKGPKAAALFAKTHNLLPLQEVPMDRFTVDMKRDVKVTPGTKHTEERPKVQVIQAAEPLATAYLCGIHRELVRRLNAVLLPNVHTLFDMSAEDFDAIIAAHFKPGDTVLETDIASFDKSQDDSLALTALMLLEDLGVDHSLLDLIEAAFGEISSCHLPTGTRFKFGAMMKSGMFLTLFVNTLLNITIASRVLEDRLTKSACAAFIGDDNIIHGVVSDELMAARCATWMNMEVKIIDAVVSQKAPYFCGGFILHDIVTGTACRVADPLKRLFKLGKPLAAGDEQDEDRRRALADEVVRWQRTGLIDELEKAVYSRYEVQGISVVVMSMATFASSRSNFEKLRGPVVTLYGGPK

Compound | CC50 [1] | EC50 (Chikungunya virus [2]) | other results
COC(=O)/C=C/CNC(=O)c1cc(C)cc2c1NC(C)(C)C=C2C | > 43 µM | > 43 µM | –
COC(=O)/C=C/CNC(=O)c1cccc2ccc(C)nc12 | 34 µM | > 34 µM | –
COC(=O)/C=C/CNC(=O)c1cccc2c1NCCC2 | > 50 µM | > 50 µM | –
CC1CC(C)(C)Nc2c(C(=O)NC/C=C/S(C)(=O)=O)cccc21 (stereo not given) | > 50 µM | 25 µM | selectivity ratio [3]: > 2
COC(=O)CCCNC(=O)c1cccc2c1NC(C)(C)CC2C (stereo not given) | > 50 µM | > 50 µM | –
NC(=O)c1nc(F)cnc1O | – | – | Activity (Chikungunya virus [4]): 5.1; Survival (Chikungunya virus [5]): Active; Activity (Chikungunya virus [6]): 32.6%
COC(=O)/C=C/CNC(=O)c1cccc2cccnc12 | > 50 µM | > 50 µM | –
CS(=O)(=O)/C=C/[C@H](Cc1ccccc1)NC(=O)c1cccc2cccnc12 | > 50 µM | > 50 µM | –
COC(=O)/C=C/CNC(=O)c1cccc2c1NC(C)(C)C=C2C | > 22 µM | > 22 µM | –
CC1=CC(C)(C)Nc2c(C(=O)N[C@@H](C)/C=C/S(C)(=O)=O)cccc21 | > 50 µM | 4.4 µM | selectivity ratio [3]: > 11
COC(=O)/C=C/CNC(=O)c1ccccc1Nc1ccccc1 | 38 µM | > 38 µM | –
CC1CCc2cccc(C(=O)NC/C=C/S(C)(=O)=O)c2N1 (stereo not given) | > 50 µM | 0.23 µM | CLH [7]: < 57.8 µL/min/mg; t1/2 [8]: > 2 h; t1/2 [9]: 1.356 h; EC90 (Chikungunya virus [10]): 1.5 µM; selectivity ratio [3]: > 220; inhibition [11]: Dose-Dependent Effect; TDI [12]: Active; CLH [13]: < 19.3 µL/min/mg; Ratio (10^-6 microM/s) [14]: 35.8
CC1=CC(C)(C)Nc2c(C(=O)NC/C=C/S(C)(=O)=O)cccc21 | 39 µM | 23 µM | –
COC(=O)/C=C/CNC(=O)c1c[nH]c2ccc(Br)cc12 | 16 µM | 3.1 µM | –
